The text below walks through data of patent US8906904B2, “Alkoxy pyrazoles as soluble guanylate cyclase activators” (Boehringer Ingelheim International GmbH, priority 2012, dated 2014).

Values after ≈ are worked out from the molar mass of the structure shown.

A short description of the data set: Assessment of solubility (McIlvaine buffers, 24 h shake, UPLC-UV). Format: physicochemical. Particulars: kinetic from dmso stock. As to the method: Solubility is measured by the following method.
100 uL, 10 mM DMSO stock solution of each compound is prepared in a 96 well plate format. The experiment is done in single determination at 3 pH values (2.2, 4.5 and 6.8). For each pH and one reference, 40 uL of each compound is needed.
McIlvaine pH 2.2: To 2.076 g citric acid monohydrate and 0.043 g Na2HPO4×2H2O add 100 ml deionized water
McIlvaine pH 4.5: To 1.166 g citric acid monohydrate and 1.585 g Na2HPO4×2H2O add 100 ml deionized water
McIlvaine pH 6.8: To 0.476 g citric acid monohydrate and 2.753 g Na2HPO4×2H2O add 100 ml deionized water
With a suitable liquid handling device (Multipette® or a liquid handler) 390 uL of each buffer solution and 10 uL of compound is added to each well of a 96 deep well plate. The plates are covered firmly and shaken for 24 h on an over head shaker (at 54 RPM) at room temperature. The DMSO content in the final buffer is 2.5% v/v.
After 24 h the plates are centrifuged to remove droplets on the lid before opening (for ˜5 min at 2500 RPM).
The filtration is done under vacuum with Millipore 96 well filter plate. Filtrate is collected in a deep well plate and transferred to a suitable plate for UPLC analysis.
The reference plate is prepared by adding 10 uL of compound to 390 uL of 50:50 acetonitrile/water in a 96 deep well plate and transferred to a suitable plate for UPLC analysis. Wells are checked visually for precipitation, any presence noted under comments in reported results.
The samples are measured with UPLC-UV using the chromatographic method described below.
Waters Empower®2 software is used for generating Sample Sets (according to the plate layout), Sample Set Methods and Instrument Methods.
One Sample Set comprises the methods for three 96 well plates (one reference plate and two sample plates, and includes one Sample Set Method and one Instrument Method).
3. Data Processing and Analysis
The UV chromatograms collected at 254 nm are integrated and processed.
It is assumed that the compound is completely dissolved in the reference solution (50:50 acetonitrile/water)

What is called solubility is how much of the substance goes into solution per volume. A higher solubility goes with a readily soluble substance. As to `COc1c(C(=O)O)cnn1-c1cccc(-c2cccc(Cl)c2OCc2ccc3c(c2)CCN(C2COC2)C3)n1` [Compound 7], the solubility at 24 h is 110 µg/mL (≈ 201 µM) (pH 2.2, aqueous buffer); 77 µg/mL (≈ 141 µM) (pH 4.5, aqueous buffer); 91 µg/mL (≈ 166 µM) (pH 6.8, aqueous buffer).

As for `COc1c(C(=O)O)cnn1-c1cccc(-c2cccc(C)c2OCc2ccc3c(c2)CCN(C2COC2)C3)n1` [Compound 8], the solubility at 24 h is, setting by setting: (pH 2.2, aqueous buffer) 110 µg/mL (≈ 209 µM); (pH 4.5, aqueous buffer) 82 µg/mL (≈ 156 µM); (pH 6.8, aqueous buffer) 98 µg/mL (≈ 186 µM).

For the molecule `COc1c(C(=O)O)cnn1-c1cccc(-c2cccc(C(F)(F)F)c2OCc2ccc3c(c2)CCN(C2COC2)C3)n1` [Compound 9], the solubility at 24 h by setting is: (pH 2.2, aqueous buffer) 94 µg/mL (≈ 162 µM); (pH 4.5, aqueous buffer) 70 µg/mL (≈ 121 µM); (pH 6.8, aqueous buffer) 82 µg/mL (≈ 141 µM).

On to `COc1c(C(=O)O)cnn1-c1cccc(-c2cccc(C)c2OCc2ccc3c(c2)C(C)(C)CN(C2COC2)C3)n1` [Compound 10], for which the solubility at 24 h was 94 µg/mL (≈ 169 µM) (pH 2.2, aqueous buffer); 50 µg/mL (≈ 90.1 µM) (pH 4.5, aqueous buffer); 73 µg/mL (≈ 132 µM) (pH 6.8, aqueous buffer).

Consider `COc1c(C(=O)O)cnn1-c1cccc(-c2cccc(C)c2OCc2ccc3c(c2)CCN(CC(F)(F)F)C3)n1` [Compound 11, 5-methoxy-1-(6-{3-methyl-2-[2-(2,2,2-trifluoro-ethyl)-1,2,3,4-tetrahydro-isoquinolin-6-ylmethoxy]-phenyl}-pyridin-2-yl)-1H-pyrazole-4-carboxylic acid], for which the solubility at 24 h is 23 µg/mL (≈ 41.6 µM) (pH 2.2, aqueous buffer); less than 0.1 µg/mL (pH 4.5, aqueous buffer); 80 µg/mL (≈ 145 µM) (pH 6.8, aqueous buffer).

Turning to `COc1c(C(=O)O)cnn1-c1cccc(-c2cccc(C)c2OCc2ccc3c(c2)CCN(CC2(C)COC2)C3)n1` [Compound 12], the solubility at 24 h is 110 µg/mL (≈ 198 µM) (pH 2.2, aqueous buffer); 90 µg/mL (≈ 162 µM) (pH 4.5, aqueous buffer); 92 µg/mL (≈ 166 µM) (pH 6.8, aqueous buffer).

In the case of `COc1c(C(=O)O)cnn1-c1cccc(-c2cccc(C)c2OCc2ccc3c(c2)CCN(C(C)C)C3)n1` [Compound 13], the solubility at 24 h reads like this: (pH 2.2, aqueous buffer) 100 µg/mL (≈ 195 µM); (pH 4.5, aqueous buffer) 84 µg/mL (≈ 164 µM); (pH 6.8, aqueous buffer) 87 µg/mL (≈ 170 µM).

Turning to `COc1c(C(=O)O)cnn1-c1cccc(-c2cccc(C)c2OCc2ccc3c(c2)CCN(CC(C)(C)C)C3)n1` [Compound 14], the solubility at 24 h reads like this: (pH 2.2, aqueous buffer) 110 µg/mL (≈ 203 µM); (pH 4.5, aqueous buffer) 82 µg/mL (≈ 152 µM); (pH 6.8, aqueous buffer) 76 µg/mL (≈ 141 µM).

On to `CCOc1c(C(=O)O)cnn1-c1cccc(-c2cccc(C)c2OCc2ccc3c(c2)CCN(CC2CC(=O)N(C)C2)C3)n1` (stereo not drawn) [Compound 97, 5-ethoxy-1-(6-{3-methyl-2-[2-(1-methyl-5-oxo-pyrrolidin-3-ylmethyl)-1,2,3,4-tetrahydro-isoquinolin-6-ylmethoxy]-phenyl}-pyridin-2-yl)-1H-pyrazole-4-carboxylic acid], for which the solubility at 24 h turned out to be 91 µg/mL (≈ 153 µM) (pH 2.2, aqueous buffer); 72 µg/mL (≈ 121 µM) (pH 4.5, aqueous buffer); 77 µg/mL (≈ 129 µM) (pH 6.8, aqueous buffer).

Consider `COc1c(C(=O)O)cnn1-c1cccc(-c2ccc(C)cc2OCc2ccc3c(c2)CCN(C2CCOCC2)C3)n1` [Compound 98], for which the solubility at 24 h reads like this: (pH 2.2, aqueous buffer) 150 µg/mL (≈ 270 µM); (pH 4.5, aqueous buffer) 110 µg/mL (≈ 198 µM); (pH 6.8, aqueous buffer) 99 µg/mL (≈ 178 µM).

For `COc1c(C(=O)O)cnn1-c1cccc(-c2ccc(C)cc2OCc2ccc3c(c2C)CCN(C2CCOCC2)C3)n1` [Compound 99], the concentration in solution (pH 2.2, aqueous buffer) (solubility at 24 h) came to 150 µg/mL (≈ 264 µM); the concentration in solution (pH 4.5, aqueous buffer) (solubility at 24 h) was 120 µg/mL (≈ 211 µM); the concentration in solution (pH 6.8, aqueous buffer) (solubility at 24 h) came to 110 µg/mL (≈ 193 µM).

On to `COc1c(C(=O)O)cnn1-c1cccc(-c2cccc(C)c2OCc2ccc3c(c2)CCCN(C2CCOCC2)C3)n1` [Compound 100], for which the solubility at 24 h by setting is: (pH 2.2, aqueous buffer) 110 µg/mL (≈ 193 µM); (pH 4.5, aqueous buffer) 88 µg/mL (≈ 155 µM); (pH 6.8, aqueous buffer) 97 µg/mL (≈ 171 µM).

`CCOc1c(C(=O)O)cnn1-c1cccc(-c2cccc(C)c2OCc2ccc3c(c2)CCN(CC2CCCO2)C3)n1` (stereo not drawn) [Compound 101, 5-ethoxy-1-(6-{3-methyl-2-[2-(tetrahydro-furan-2-ylmethyl)-1,2,3,4-tetrahydro-isoquinolin-6-ylmethoxy]-phenyl}-pyridin-2-yl)-1H-pyrazole-4-carboxylic acid]: the solubility at 24 h (pH 2.2, aqueous buffer) is 90 µg/mL (≈ 158 µM); the concentration in solution (pH 4.5, aqueous buffer) (solubility at 24 h) was 73 µg/mL (≈ 128 µM); the concentration in solution (pH 6.8, aqueous buffer) (solubility at 24 h) was 74 µg/mL (≈ 130 µM).
